The source of these data is article PMC9413440, “An Iterative Approach Guides Discovery of the FabI Inhibitor Fabimycin, a Late-Stage Antibiotic Candidate with In Vivo Efficacy against Drug-Resistant Gram-Negative Infections” (ACS Central Science, 2022).

Like-named read-outs stand apart in the source and are kept apart here.

The subject of assay [1] is A. baumannii 19606 FabI mutants. The assay can be described thus: MIC of fabimycin-resistant mutants. Format: cell-based. To be noted: Acinetobacter baumannii. As for the experimental part: (§1) II. Materials and Methods for Biological Experiments
(§2) S. aureus ATCC 29213 and E. coli MG1655 were obtained from the American Type Culture Collection (ATCC). E. coli BW25113 and E. coli JW5503 were obtained from the Keio Collection. AR-bank strains were obtained from the Centers for Disease Control and Prevention and FDA Antibiotic Resistance Isolate Bank.
(§3) Antimicrobial susceptibility tests
(§4) Susceptibility testing was performed in biological triplicate, unless noted otherwise, using the micro-dilution broth method as outlined by the Clinical and Laboratory Standards Institute. Bacteria were cultured with cation-adjusted Mueller Hinton broth (Sigma Aldrich, catalogue number: 90922). […]
(§5) Error bars represent the standard error of the mean of three biological replicates. All compounds evaluated in biological assays were ≥95% pure.
(§6) Selection of resistant mutants
(§7) Resistant mutants were generated using the large inoculum method. Briefly, S. aureus 29213, E. coli MG1655, and A. baumannii 19606 (~1 x 1010 CFUs) was plated on 100-mm plates (E. coli and A. baumannii) or 150-mm plates (S. aureus) of MH agar containing either 128, 64, or 32 µg/mL fabimycin (for gram-negatives) or 0.125, 0.062, and 0.031 µg/mL fabimycin (for S. aureus). Plates were incubated at 37 °C for 48 h and counted for the presence of colony forming units.
(§8) Glycerol stocks of selected colonies were made, and resistant colonies confirmed by growing on agar plates containing the same concentration of fabimycin that they were generated at.
(§9) Sequencing of bacterial fabI
(§10) The FabI gene was amplified by PCR. Fabimycin-resistant colonies were picked and diluted in 100 µL sterile, nuclease-free H2O. PCR reactions were then set up by combining 14 µL H2O, 1 µL 20 µM primer mix, 10 µL template (bacteria solution in H2O), and 25 µL MiFi Mix (Bioline). The reaction was performed on a C1000 Thermal Cycler (Bio-Rad) under the following conditions for 35 cycles: initial denature: 95 °C for 3 min; denature 95 °C for 15 s; anneal: 57 °C for 15 s; extend 72 °C for 30 s; final extend: 72 °C for 3 min. A 10 µL portion of PCR reaction mixture was analyzed by agarose gel electrophoresis to confirm the single 1.4-kilobase pair product. PCR products were purified using a GeneJET PCR Purification Kit (Thermo Fischer Scientific). PCR amplicons were submitted to the Core DNA Sequencing Facility at the University of Illinois at Urbana-Champaign for Sanger sequencing with overlapping internal primers. All primers were obtained from Integrated DNA Technologies.
(§11) Primers for sequencing of fabI gene in select pathogens: […]
(§12) Organism Sequence Reference
(§13) Forward 5’-GGG-GCC-AGC-GTT-TCT-TTT-TC-3‘ Parker, 20203
(§14) Reverse 5’-AAA-CAT-GGA-GAC-GGT-GCT-GG
(§15) Forward 5’-GTG-AGA-TCG-GCA-TGA-CAC-AA-3’ Lin, 20179
(§16) Reverse 5’-CTG-AAG-TCC-GCT-ACC-GTT-AT-3’
(§17) Compound stability in mammalian plasma
(§18) Candidate drugs were incubated with plasma and parent drug levels were monitored at various time points (generally t=0, 10, 20, 30, and 60 minutes) to determine the drug’s half-life in the presence of the chosen system. Each drug is tested in duplicate. Compounds were diluted from 10 mM DMSO stocks to 1 µM in a 100 mM pH 7.4 phosphate buffer and incubated at 37 °C with 0.5 mg/mL of human, rat, or mouse plasma (BioreclamationIVT, Baltimore, MD). Time points were collected at 0 min (after addition of drug), 15 min, 30 min, 60 min, and 120 min following quenching with an equal volume of acetonitrile. The supernatant was collected after centrifugation, and the sample analyzed by LC-MS where the percentage of compound remaining is plotted vs time to determine the drug’s half-life.
(§19) Compound plasma protein binding
(§20) Candidate drugs were incubated with plasma and parent drug levels are monitored after 4 hours to determine the drug’s free concentration in the presence of the plasma proteins. The standard assay involves equilibrium dialysis, in which compound is allowed to equilibrate between a protein-containing compartment from a protein-free compartment. Each

The test system of assay [2] is E. coli MG1655 FabI mutants. Put plainly: MIC of fabimycin-resistant mutants. Format: cell-based. The following applies: Escherichia coli. As for the experimental part: as §1, §2, §3, §4, §5, §6, §7, §8, §9, §10, §11, §12, §13, §14, §15, §16, §17, §18, §19, §20

A word on the MIC: it is the lowest concentration that inhibits growth of the organism. With `Cc1c(CN(C)C(=O)/C=C/c2cnc3c(c2)CC[C@H](N)C(=O)N3)oc2ccccc12` [fabimycin], the minimum inhibitory concentration (MIC) was 64 to 128 µg/mL in assay [1] (FabI mutation A118T, plated at 16x MIC (32 μg/mL), colonies 4/5, read-out: MIC of mutants); 128 µg/mL in assay [1] (FabI mutation N160K, plated at 16x MIC (32 μg/mL), colonies 1/5, read-out: MIC of mutants); 8 to 16 µg/mL in assay [1] (read-out: MIC of mutants, FabI WT, plated at 8x MIC (16 μg/mL), colonies 2/5); 64 µg/mL in assay [1] (read-out: MIC of mutants, FabI mutation A118T, plated at 32x MIC (64 μg/mL), colonies 4/5); 128 µg/mL in assay [1] (read-out: MIC of mutants, FabI mutation A118V, plated at 8x MIC (16 μg/mL), colonies 1/5); 32 µg/mL in assay [1] (read-out: MIC of mutants, FabI mutation F206L, plated at 8x MIC (16 μg/mL), colonies 1/5). Also, the minimal inhibitory concentration (MIC) in assay [1] (read-out: MIC of mutants, FabI mutation G151S, plated at 32x MIC (64 μg/mL), colonies 1/5) is 64 µg/mL; in assay [1] (read-out: MIC of mutants, FabI mutation M162T, plated at 8x MIC (16 μg/mL), colonies 1/5), 128 µg/mL; in assay [2] (MG1655, FabI mutation G148S, plated at 16x MIC (32 μg/mL), colonies 2/5, read-out: MIC of mutants) it was at least 128 µg/mL; in assay [2] (MG1655, read-out: MIC of mutants, FabI mutation G148A, plated at 8x MIC (16 μg/mL), colonies 3/5), 32 to 64 µg/mL; in assay [2] (MG1655, read-out: MIC of mutants, FabI mutation G148A, plated at 16x MIC (32 μg/mL), colonies 3/5) it was 64 µg/mL; in assay [2] (MG1655, read-out: MIC of mutants, FabI mutation G148S, plated at 8x MIC (16 μg/mL), colonies 1/5), 128 µg/mL. For the same molecule, the MIC in assay [2] (MG1655, read-out: MIC of mutants, FabI mutation M159T, plated at 8x MIC (16 μg/mL), colonies 1/5) was 32 µg/mL.
